In US6897316B2, “Substituted 2-phenyl-4-quinolone-3-carboxylic acid compounds and their use as antitumor agents” (China Medical University, priority 2003, dated 2005):
Converted amounts (≈) assume the structure as drawn.

What was measured:
[1] = system: human ovarian cancer (IA9) cell line; experiment: Activity against HTCL replication, IA9; type: cell-based
Description: (§1) Compounds were assayed for in vitro cytotoxicity in a panel of human tumor cell lines at the School of Pharmacy, University of North Carolina at Chapel Hill, according to procedures described previously [Lee, K. H., Lin, Y. M., Wu, T. S., Zhang, D. C., Yamagishi, T., Hayashi, T., Hall, I. H., Chang, J. J., Wu, R. Y., Yang, T. H. The cytotoxic principles of Prunella vulgaris, Psychotria serpens, and Hyptis capitata: Ursolic acid and related derivatives. Planta Med. 1988, 54, 308-11; Boyd, M. R. Status of the National Cancer Institute preclinical antitumor drug discovery screen: implications for selection of new agents for clinical trial. Devita, V. T., Jr. Hellman, S., Rosenberg, S. A., Eds, J. B. Cancer: Principles and Practice of Oncology Update, 1989, 3: pp1-12, Lippincoft: Philadephia; Monks, A., Scudiero, D., Skehan, P., Shoemaker, R., Paull, K., Vistica, D., Hose, C., Langley, J., Cronise, P., Vaigro-Wolff, A., Gray-Goodrich, M., Campbell, H., Mayo, J., Boyd, M. Feasibility of a high-flux anticancer drug screen using a diverse panel of cultured human tumor cell lines. J. Natl. Cancer Inst. 1991, 83, 757-66.] The cell lines included human ovarian cancer (1A9), ileocecal carcinoma (HCT-8), lung carcinoma (A-549), glioblastoma (U-87-MG), bone (HOS), epidermoid carcinoma of the naynx (KB), P-gp-expressing epidermoid carcinoma of the nasopharynx (KB-VIN), and melanoma (SKMEL-2) cell line. The cytotoxic effects of each compound were obtained as EC50 values, which represent the molar drug concentrations required to cause 50% inhibition.
Antitumor activity of compounds IX-8 and X-8 was further tested on the following 8 cancer cell lines: CAKI, HOS, KB, KB-VIN, SK-MEL-2, U87-MG, HCT-8 and IA9. […] It is worth mentioning that these two compounds were quite active against human ovarian cancer cells (IA9), which were known to have a high level of drug resistant P-glycoprotein. IC50 of compound IX-8 against these cancer cells is only 0.03 μg/mL. Thus, this compound is really worth developing, particular against drug resistant ovarian cancer.

[2] = system: ileocecal carcinoma (HCT-8) cell line; experiment: Activity against HTCL replication, HCT-8; type: cell-based, human; details: mean ED50
Description: as §1, with “The cell lines included human ovarian cancer (1A9), ileocecal carcinoma (HCT-8), lung carcinoma (A-549), glioblastoma (U-87-MG), bone (HOS), epidermoid carcinoma of the naynx (KB), P-gp-expressing epidermoid carcinoma of the nasopharynx (KB-VIN), and melanoma (SKMEL-2) cell line. The cytotoxic effects of each compound were obtained as EC50 values, which represent the molar drug concentrations required to cause 50% inhibition.” left out

[3] = system: Vincristine-resistant epidermoid carcinoma of the nasopharynx (KB-VIN) cell line; experiment: Activity against HTCL replication, KB-VIN; type: cell-based, human; details: mean ED50
Description: as §1, with “The cell lines included human ovarian cancer (1A9), ileocecal carcinoma (HCT-8), lung carcinoma (A-549), glioblastoma (U-87-MG), bone (HOS), epidermoid carcinoma of the naynx (KB), P-gp-expressing epidermoid carcinoma of the nasopharynx (KB-VIN), and melanoma (SKMEL-2) cell line. The cytotoxic effects of each compound were obtained as EC50 values, which represent the molar drug concentrations required to cause 50% inhibition.” left out

[4] = system: glioblastoma (U87-MG) cell line; experiment: Activity against HTCL replication, U87-MG; type: cell-based, human; details: mean ED50
Description: as §1, with “The cell lines included human ovarian cancer (1A9), ileocecal carcinoma (HCT-8), lung carcinoma (A-549), glioblastoma (U-87-MG), bone (HOS), epidermoid carcinoma of the naynx (KB), P-gp-expressing epidermoid carcinoma of the nasopharynx (KB-VIN), and melanoma (SKMEL-2) cell line. The cytotoxic effects of each compound were obtained as EC50 values, which represent the molar drug concentrations required to cause 50% inhibition.” left out

bone (HOS) cell line = experiment: Activity against HTCL replication, HOS; type: cell-based, human; details: mean ED50
Description: as §1, with “The cell lines included human ovarian cancer (1A9), ileocecal carcinoma (HCT-8), lung carcinoma (A-549), glioblastoma (U-87-MG), bone (HOS), epidermoid carcinoma of the naynx (KB), P-gp-expressing epidermoid carcinoma of the nasopharynx (KB-VIN), and melanoma (SKMEL-2) cell line. The cytotoxic effects of each compound were obtained as EC50 values, which represent the molar drug concentrations required to cause 50% inhibition.” left out

[5] = system: melanoma (SK-MEL-2) cell line; experiment: Activity against HTCL replication, SK-MEL-2; type: cell-based, human; details: mean ED50
Description: as §1, with “The cell lines included human ovarian cancer (1A9), ileocecal carcinoma (HCT-8), lung carcinoma (A-549), glioblastoma (U-87-MG), bone (HOS), epidermoid carcinoma of the naynx (KB), P-gp-expressing epidermoid carcinoma of the nasopharynx (KB-VIN), and melanoma (SKMEL-2) cell line. The cytotoxic effects of each compound were obtained as EC50 values, which represent the molar drug concentrations required to cause 50% inhibition.” left out

[6] = system: Renal cancer (CAKI) cell line; experiment: Activity against HTCL replication, CAKI; type: cell-based, human; details: mean ED50
Description: as §1, with “The cell lines included human ovarian cancer (1A9), ileocecal carcinoma (HCT-8), lung carcinoma (A-549), glioblastoma (U-87-MG), bone (HOS), epidermoid carcinoma of the naynx (KB), P-gp-expressing epidermoid carcinoma of the nasopharynx (KB-VIN), and melanoma (SKMEL-2) cell line. The cytotoxic effects of each compound were obtained as EC50 values, which represent the molar drug concentrations required to cause 50% inhibition.” left out

SMILES: COc1ccc2[nH]c(-c3cccc(F)c3)c(C(=O)O)c(=O)c2c1 [IX-8, 3′-Fluoro-6-methoxy-2-phenyl-4-quinolone-3-carboxylic acid]
- IC50 ([1]; Homo sapiens, IA9, as worded in text, read-out: IC50 against human ovarian cancer cells (IA9)): 0.03 µg/mL (≈ 0.0958 µM)
- ED50 IA9 ([1]; ovarian cancer IA9, mean ED50): 0.03 µg/mL (≈ 0.0958 µM)
- ED50 HCT-8 [2]: 0.14 µg/mL (≈ 0.447 µM)
- ED50 KB-VIN [3]: 0.13 µg/mL (≈ 0.415 µM)
- ED50 U87-MG [4]: 1.50 µg/mL (≈ 4.79 µM)
- ED50 HOS (bone (HOS) cell line): 0.14 µg/mL (≈ 0.447 µM)
- ED50 SK-MEL-2 [5]: 0.16 µg/mL (≈ 0.511 µM)
- ED50 CAKI [6]: 10.0 µg/mL (≈ 31.9 µM)
